Test results as given in patent US10766884B2 (Pfizer Inc., priority 2018, dated 2020).

Key:
CDK4 = CDK4 (Homo sapiens (Human), UniProt P11802); experiment: Phospho-Serine 795 Rb ELISA assay in JEKO-1 cells; format: cell-based; conditions: overnight treatment, phospho-Rb S795, read-out: CDK4 pRB S795 ELISA JEKO-1 cells IC50
Description: (§1) JEKO-1 or MV4-11 cells were seeded at 15,000 or 20,000 cells per well, respectively, in 100 μL growth media and allowed to incubate at 37° C. with 5% CO2 overnight. The following day, compounds were serially diluted from a 10 mM top dose for an 11-point 3-fold dilution curve in DMSO. Compounds were intermediately diluted 1:200 into growth media prior to diluting 1:5 on cells for final concentration 10 μM to 0.1 nM in 0.1% DMSO on cells. JEKO-1 and MV4-11 cells were treated were treated overnight, at 37° C. with 5% CO2. Cells were lysed in 100 μL/well CST lysis buffer on ice and transferred to pre-coated and blocked anti-phospho-Ser795 Rb ELISA plates for overnight incubation at 4° C. Plates were washed to remove residual, unbound cellular proteins and total Rb detection antibody added for 90 minutes at 37° C. Following wash to remove unbound total Rb antibody, the HRP tagged antibody was allowed to bind for 30 minutes at 37° C. Following wash to remove unbound HRP antibody, Glo Substrate Reagent was added and incubated protected from light for 5 to 10 minutes. Plates were read in luminescence mode and IC50 values calculated.

CDK6 = CDK6 (Homo sapiens (Human), UniProt Q00534); experiment: Phospho-Serine 795 Rb ELISA assay in MV4-11 cells; format: cell-based; conditions: overnight treatment, phospho-Rb S795, read-out: CDK6 pRB S795 ELISA MV4-11 cells IC50
CDK6, sequence (Q00534 whole entry): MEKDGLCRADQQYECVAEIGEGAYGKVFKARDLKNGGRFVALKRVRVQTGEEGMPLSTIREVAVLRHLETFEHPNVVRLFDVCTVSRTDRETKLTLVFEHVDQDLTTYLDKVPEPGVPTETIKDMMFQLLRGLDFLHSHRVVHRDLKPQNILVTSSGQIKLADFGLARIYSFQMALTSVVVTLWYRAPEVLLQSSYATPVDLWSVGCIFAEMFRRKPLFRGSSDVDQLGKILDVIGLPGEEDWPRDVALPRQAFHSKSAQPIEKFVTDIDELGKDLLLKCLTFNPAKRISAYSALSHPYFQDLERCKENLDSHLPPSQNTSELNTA
CDK6, sequence (P30281 whole entry partner): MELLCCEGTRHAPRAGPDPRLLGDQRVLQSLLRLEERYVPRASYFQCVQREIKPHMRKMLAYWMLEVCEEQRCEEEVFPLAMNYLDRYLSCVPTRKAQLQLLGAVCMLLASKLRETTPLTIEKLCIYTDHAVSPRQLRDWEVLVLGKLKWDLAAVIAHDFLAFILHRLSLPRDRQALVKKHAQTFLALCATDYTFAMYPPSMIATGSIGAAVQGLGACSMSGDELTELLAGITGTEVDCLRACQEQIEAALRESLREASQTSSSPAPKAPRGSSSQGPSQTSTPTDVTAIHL
Description: as §1

CDK4/Cyclin D1 = CDK4/Cyclin D1 (Homo sapiens (Human), UniProt P11802); experiment: CDK4/Cyclin D1 mobility shift assay; format: biochemical; conditions: activated CDK4/Cyclin D1, 3.5 mM ATP, Morrison fit; read-out: CDK4D1 Ki
CDK4/Cyclin D1, sequence (P11802 whole entry): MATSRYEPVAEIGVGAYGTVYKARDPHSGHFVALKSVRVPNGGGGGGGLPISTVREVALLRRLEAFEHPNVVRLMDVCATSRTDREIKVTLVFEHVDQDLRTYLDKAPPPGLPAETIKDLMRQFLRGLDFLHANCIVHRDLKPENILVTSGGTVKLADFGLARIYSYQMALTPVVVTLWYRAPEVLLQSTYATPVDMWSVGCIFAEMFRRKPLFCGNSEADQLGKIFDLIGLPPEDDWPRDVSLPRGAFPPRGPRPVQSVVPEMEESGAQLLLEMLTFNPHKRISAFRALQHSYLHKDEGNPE
CDK4/Cyclin D1, sequence (P24385 whole entry partner): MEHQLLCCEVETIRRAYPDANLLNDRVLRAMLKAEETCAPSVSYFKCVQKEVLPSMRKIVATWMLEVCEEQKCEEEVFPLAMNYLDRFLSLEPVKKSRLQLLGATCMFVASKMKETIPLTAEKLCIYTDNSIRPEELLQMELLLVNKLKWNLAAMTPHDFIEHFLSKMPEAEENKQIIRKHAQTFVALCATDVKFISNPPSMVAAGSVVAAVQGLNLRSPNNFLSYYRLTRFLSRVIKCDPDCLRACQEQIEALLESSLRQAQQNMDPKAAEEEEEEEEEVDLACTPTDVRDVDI
Description: (§2) The purpose CDK4/Cyclin D1 assay is to evaluate the inhibition (% inhibition, Kiapp and Ki values) in the presence of small molecule inhibitors by using a fluorescence based microfluidic mobility shift assay. […] The mobility shift assay electrophoretically separates the fluorescently labeled peptides (substrate and phosphorylated product) following the kinase reaction. Both substrate and product are measured and the ratio of these values is used to generate % Conversion of substrate to product by the LabChip EZ Reader.
The reaction was stopped after 195 minutes by the addition of 50 μL of 30 mM EDTA. Ki determinations were made from a plot of the fractional velocity as a function of inhibitor concentration fit to the Morrison equation with the enzyme concentration as a variable.
(§3) For CDK4 and CDK6 mobility shift assays, see also Morrison, J. F. (1969) Kinetics of the reversible inhibition of enzyme-catalysed reactions by tight-binding inhibitors, Biochimica et biophysica acta 185, 269-286; and Murphy, D. J. (2004) Determination of accurate KI values for tight-binding enzyme inhibitors: an in silico study of experimental error and assay design, Analytical biochemistry 327, 61-67.

CDK6/Cyclin D3 = CDK6/Cyclin D3 (Homo sapiens (Human), UniProt Q00534); experiment: CDK6/Cyclin D3 mobility shift assay; format: biochemical; conditions: activated CDK6/Cyclin D3, 3.5 mM ATP, Morrison fit; read-out: CDK6_D3 Ki
CDK6/Cyclin D3, sequence (Q00534 whole entry): as the sequence (Q00534 whole entry) above
CDK6/Cyclin D3, sequence (P30281 whole entry partner): as the sequence (P30281 whole entry partner) above
Description: as §2, with “of the CDK6/Cyclin D3” for “CDK4/Cyclin D1”, “conversion” for “Conversion”
The reaction was stopped after 95 minutes by the addition of 50 μL of 30 mM EDTA. Ki determinations were made from a plot of the fractional velocity as a function of inhibitor concentration fit to the Morrison equation with the enzyme concentration as a variable.
as §3

CDK4, sequence (P11802 2-303): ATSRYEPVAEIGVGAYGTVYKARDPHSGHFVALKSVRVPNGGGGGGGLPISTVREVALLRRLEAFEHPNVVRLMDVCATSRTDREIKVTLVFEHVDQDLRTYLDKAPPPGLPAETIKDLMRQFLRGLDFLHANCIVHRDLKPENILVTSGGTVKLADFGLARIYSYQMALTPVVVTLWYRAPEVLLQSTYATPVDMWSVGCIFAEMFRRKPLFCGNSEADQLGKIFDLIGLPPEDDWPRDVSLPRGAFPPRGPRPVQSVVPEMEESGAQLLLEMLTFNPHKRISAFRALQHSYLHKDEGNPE
CDK4, sequence (P24385 whole entry partner): as the sequence (P24385 whole entry partner) above

| IC50 (CDK4) [nM] | IC50 (CDK6) [nM] | Ki (CDK4/Cyclin D1) [nM] | Ki (CDK6/Cyclin D3) [nM] | Compound |
| --- | --- | --- | --- | --- |
| 40.1 | 167 | 1.3 | 16.4 | CC(C)n1c(C(C)(O)C2CC2)nc2c(F)cc(-c3nc(N[C@@H]4CCOC[C@H]4O)ncc3Cl)cc21 (single isomer, unassigned) [Example A24] |
| 23.5 | 87 | 0.5 | 7.1 | CC(C)n1c(C2CCO2)nc2c(F)cc(-c3nc(N[C@@H]4CCN(S(C)(=O)=O)C[C@H]4O)ncc3Cl)cc21 (single isomer, unassigned) [Example A31] |
| 19.6 | 43.9 | 0.2 | 3.7 | CC(O)c1nc2c(F)cc(-c3nc(N[C@@H]4CCOC[C@H]4O)ncc3Cl)cc2n1C(C)C(F)F (single isomer, unassigned) [Example A36] |
| 383 | 370 | 1 | 24.6 | CC(N)c1nc2c(F)cc(-c3nc(N[C@@H]4CCN(S(C)(=O)=O)C[C@H]4O)ncc3Cl)cc2n1C(C)C (single isomer, unassigned) [Example A47] |
| 36.5 | 58.9 | 0.1 | 2.3 | CC(N)c1nc2c(F)cc(-c3nc(N[C@@H]4CCN(S(C)(=O)=O)C[C@H]4O)ncc3Cl)cc2n1C(C)C (single isomer, unassigned) [Example A48] |
| 198 | 283 | 3.2 | 64.9 | CC1CNCc2nc3c(F)cc(-c4nc(N[C@@H]5CCOC[C@H]5O)ncc4Cl)cc3n21 (single isomer, unassigned) [Example A55, 1,5-anhydro-3-{[5-chloro-4-(9-fluoro-4-methyl-1,2,3,4-tetrahydropyrazino[1,2-a]benzimidazol-7-yl)pyrimidin-2-yl]amino}-2,3-dideoxy-D-threo-pentitol] |
| 49 | 269 | 0.4 | 19.1 | CC(C)n1c(CC(N)C(F)F)nc2c(F)cc(-c3nc(N[C@@H]4CCOC[C@H]4O)ncc3Cl)cc21 (single isomer, unassigned) [Example A57, 3-({4-[2-(2-amino-3,3-difluoropropyl)-4-fluoro-1-(propan-2-yl)-1H-benzimidazol-6-yl]-5-chloropyrimidin-2-yl}amino)-1,5-anhydro-2,3-dideoxy-D-threo-pentitol] |
| 33.1 | 203 | 0.6 | 17.6 | CC(C)n1c(CC(N)C(F)F)nc2c(F)cc(-c3nc(N[C@@H]4CCOC[C@H]4O)ncc3Cl)cc21 (single isomer, unassigned) [Example A58, 3-({4-[2-(2-amino-3,3-difluoropropyl)-4-fluoro-1-(propan-2-yl)-1H-benzimidazol-6-yl]-5-chloropyrimidin-2-yl}amino)-1,5-anhydro-2,3-dideoxy-D-threo-pentitol] |
| 72 | 188 | 0.9 | 16.1 | COCC(C)n1c(C)nc2c(F)cc(-c3nc(N[C@@H]4CCN(S(C)(=O)=O)C[C@H]4O)ncc3Cl)cc21 (single isomer, unassigned) [Example A73] |
| 26.5 | 89.7 | 0.2 | 6.2 | COCC(C)n1c(C)nc2c(F)cc(-c3nc(N[C@@H]4CCN(S(C)(=O)=O)C[C@H]4O)ncc3Cl)cc21 (single isomer, unassigned) [Example A74] |
| 25.3 | 76.5 | 0.1 | 2.3 | Cc1nc2c(F)cc(-c3nc(N[C@@H]4CCN(S(C)(=O)=O)C[C@H]4O)ncc3Cl)cc2n1C(C)C [Example A01, (3R,4R)-4-({5-chloro-4-[4-fluoro-2-methyl-1-(propan-2-yl)-1H-benzimidazol-6-yl]pyrimidin-2-yl}amino)-1-(methanesulfonyl)piperidin-3-ol] |
| 88.6 | 163 | 0.1 | 2.5 | Cc1nc2c(F)cc(-c3nc(N[C@@H]4CCN(S(C)(=O)=O)C[C@H]4O)ncc3F)cc2n1C(C)C [Example A02] |
| 330 | 289 | 0.6 | 11.4 | Cc1nc2c(F)cc(-c3ccnc(N[C@@H]4CCN(S(C)(=O)=O)C[C@H]4O)n3)cc2n1C(C)C [Example A04] |
| 225 | 541 | 3.3 | 50.8 | Cc1nc2cc(F)c(-c3ccnc(N[C@@H]4CCN(S(C)(=O)=O)C[C@H]4O)n3)cc2n1C(C)C [Example A05] |
| 87.4 | 192 | 1.4 | 17.5 | Cc1nc2cc(F)c(-c3nc(N[C@@H]4CCN(S(C)(=O)=O)C[C@H]4O)ncc3Cl)cc2n1C(C)C [Example A06] |
| 182 | 520 | 1.8 | 28 | Cc1nc2cc(F)c(-c3nc(N[C@@H]4CCN(S(C)(=O)=O)C[C@H]4O)ncc3F)cc2n1C(C)C [Example A07] |
| 16.8 | 57.6 | 0.1 | 1.4 | CC1(C)CCc2nc3c(F)cc(-c4nc(N[C@@H]5CCN(S(C)(=O)=O)C[C@H]5O)ncc4Cl)cc3n21 [Example A09] |
| 72.7 | 195 | 0.6 | 10.4 | C[C@H]1COCc2nc3c(F)cc(-c4nc(N[C@@H]5CCN(S(C)(=O)=O)C[C@H]5O)ncc4Cl)cc3n21 [Example A10] |
| 123 | 144 | 0.3 | 3 | C[C@@H]1COCc2nc3c(F)cc(-c4nc(N[C@@H]5CCN(S(C)(=O)=O)C[C@H]5O)ncc4Cl)cc3n21 [Example A11] |
| 29.8 | 108 | 0.6 | 7.9 | CC(C)n1c([C@H](C)O)nc2cc(F)c(-c3nc(N[C@@H]4CCOC[C@H]4O)ncc3Cl)cc21 [Example A12] |
| 72.2 | 277 | 1.7 | 31.5 | CC(C)n1c([C@@H](C)O)nc2c(F)cc(-c3nc(N[C@@H]4CCOC[C@H]4O)ncc3Cl)cc21 [Example A13] |
| 69.1 | 318 | 0.9 | 14.6 | CC1(C)COCc2nc3c(F)cc(-c4nc(N[C@@H]5CCOC[C@H]5O)ncc4F)cc3n21 [Example A19] |
| 12.2 | 24.3 | 0.2 | 4.2 | CC1(C)OCCn2nc3c(F)cc(-c4nc(N[C@@H]5CCN(S(C)(=O)=O)C[C@H]5O)ncc4Cl)cc3c21 [Example A26] |
| 75.6 | 269 | 1 | 15.7 | CC1(C)OCCn2nc3c(F)cc(-c4nc(N[C@@H]5CCOC[C@H]5O)ncc4Cl)cc3c21 [Example A27] |
| 99.2 | 131 | 0.5 | 6.2 | CC(C)c1c2cc(-c3nc(N[C@@H]4CCN(S(C)(=O)=O)C[C@H]4O)ncc3Cl)ccc2nn1C [Example A28] |
| 68.6 | 95.7 | 0.6 | 5.1 | Cn1nc2ccc(-c3nc(N[C@@H]4CCN(S(C)(=O)=O)C[C@H]4O)ncc3Cl)cc2c1C(C)(C)O [Example A29] |
| 51.6 | 63.5 | 0.2 | 4.9 | CC(C)n1c(C2COC2)nc2c(F)cc(-c3nc(N[C@@H]4CCN(S(C)(=O)=O)C[C@H]4O)ncc3Cl)cc21 [Example A30] |
| 456 | 598 | 0.5 | 10.2 | Cc1nc2c(F)cc(-c3nc(N[C@@H]4CCN(S(C)(=O)=O)C[C@H]4O)ncc3Cl)cc2n1[C@H](C)CN [Example A38, (3R,4R)-4-[(4-{1-[(2R)-1-aminopropan-2-yl]-4-fluoro-2-methyl-1H-benzimidazol-6-yl}-5-chloropyrimidin-2-yl)amino]-1-(methanesulfonyl)piperidin-3-ol] |
